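How tested: cells in 96-well plates exposed to compound for 48 hours at five concentrations. TGI marks complete inhibition of growth.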
Legend:
Assay in all cases: NCI tumour cell line growth inhibition, 48 h
HCT-116 colon = tested on: HCT-116 colon
K-562 leukemia = tested on: K-562 leukemia
NCI-H23 lung = tested on: NCI-H23 lung
SF-295 CNS = tested on: SF-295 CNS
KM12 colon = tested on: KM12 colon
NCI-H460 lung = tested on: NCI-H460 lung
SK-OV-3 ovarian = tested on: SK-OV-3 ovarian
MDA-MB-435 = tested on: MDA-MB-435
MOLT-4 leukemia = tested on: MOLT-4 leukemia
HCC-2998 colon = tested on: HCC-2998 colon

`O=C1c2ccc3ccccc3c2CCC1N1CCCCC1` (stereo not given) was tested, and the TGI (HCT-116 colon) was 31.7 µM, the TGI (K-562 leukemia) was 35 µM and the TGI (NCI-H23 lung) was 40.2 µM. It also gave a TGI (SF-295 CNS) of 37.9 µM, a TGI (KM12 colon) of 31.6 µM and a TGI (NCI-H460 lung) of 50.4 µM. The TGI (SK-OV-3 ovarian) was 54.4 µM and the TGI (MDA-MB-435) was 32.3 µM.
In the case of `COc1cc(OC)nc(NC(=O)NS(=O)(=O)c2cccc3ncn(C)c(=O)c23)n1`, the TGI (HCT-116 colon) is reported as > 100 µM, the TGI (K-562 leukemia) is reported as > 100 µM and the TGI (NCI-H23 lung) is reported as > 100 µM. The TGI (SF-295 CNS) was > 100 µM, the TGI (MOLT-4 leukemia) was > 100 µM and the TGI (SK-OV-3 ovarian) was > 100 µM. For the same molecule, the TGI (MDA-MB-435) was > 100 µM.
`Cc1cc(-c2ccc(Cl)cc2)c(C#N)c(=S)n1C1OC(CO)C(O)C(O)C1O` (stereo not given) was tested, and the TGI (HCT-116 colon) was > 100 µM, the TGI (HCC-2998 colon) was > 100 µM and the TGI (NCI-H23 lung) was > 100 µM. The TGI (SF-295 CNS) was > 100 µM, the TGI (KM12 colon) was > 100 µM and the TGI (MOLT-4 leukemia) was > 100 µM. For the same molecule, the TGI (NCI-H460 lung) was > 100 µM, the TGI (SK-OV-3 ovarian) was > 100 µM and the TGI (MDA-MB-435) was > 100 µM.
`CN(C)C(=S)SCc1ccccc1` was tested, and the TGI (HCT-116 colon) was > 100 µM, the TGI (NCI-H23 lung) was > 100 µM and the TGI (SF-295 CNS) was > 100 µM. The TGI (KM12 colon) was > 100 µM, the TGI (NCI-H460 lung) was > 100 µM and the TGI (SK-OV-3 ovarian) was > 100 µM. The TGI (MDA-MB-435) was > 100 µM.
For `CC1OC2OC3C(OCC(O)C3O)OC(=O)[C@]34CCC(C)(C)CC3C3=CCC5[C@@]6(C)C[C@H](O)[C@H](OC7OC(CO)C(O)C(O)C7OC7OC(COC(=O)CC(C)(O)CC(=O)OC1C(O)C2O)C(O)C(O)C7O)[C@@](C)(CO)C6CC[C@@]5(C)[C@]3(C)CC4` (stereo not given in full), the TGI (HCT-116 colon) was 3.39 µM, the TGI (HCC-2998 colon) was 2.63 µM and the TGI (NCI-H23 lung) was 3.08 µM. The TGI (SF-295 CNS) was 3.1 µM, the TGI (KM12 colon) was 2.89 µM and the TGI (NCI-H460 lung) was 4.45 µM. The TGI (SK-OV-3 ovarian) was 2.79 µM and the TGI (MDA-MB-435) was 2.88 µM.
For `CO[C@H]1C[C@H](O[C@H]2CC[C@]3(C=O)[C@H]4CC[C@]5(C)[C@@H](C6=CC(=O)OC6)CC[C@]5(O)[C@@H]4CC[C@]3(O)C2)O[C@H](C)[C@H]1O[C@@H]1O[C@H](CO[C@@H]2O[C@H](CO)[C@@H](O)[C@H](O)[C@H]2O)[C@@H](O)[C@H](O)[C@H]1O`, the TGI (HCT-116 colon) was 0.0911 µM, the TGI (K-562 leukemia) was > 100 µM and the TGI (NCI-H23 lung) was 0.0531 µM. It also gave a TGI (SF-295 CNS) of 0.161 µM, a TGI (KM12 colon) of 0.515 µM and a TGI (MOLT-4 leukemia) of 1.07 µM. The TGI (NCI-H460 lung) was 0.0425 µM, the TGI (SK-OV-3 ovarian) was 0.21 µM and the TGI (MDA-MB-435) was 0.281 µM.
In the case of `Cc1ccc(C(=O)Nc2ccc(CP(=O)(O)O)cc2)cc1NC(=O)Nc1cc(C(=O)Nc2ccc(CP(=O)(O)O)cc2)ccc1C`, the TGI (HCT-116 colon) is reported as > 100 µM, the TGI (HCC-2998 colon) is reported as > 100 µM and the TGI (NCI-H23 lung) is reported as > 100 µM. The TGI (SF-295 CNS) was > 100 µM, the TGI (KM12 colon) was > 100 µM and the TGI (MOLT-4 leukemia) was > 100 µM. The TGI (NCI-H460 lung) was > 100 µM, the TGI (SK-OV-3 ovarian) was > 100 µM and the TGI (MDA-MB-435) was > 100 µM.
In the case of `N=C(N)c1ccc(-c2ccc(-c3ccc(C(=N)N)cc3)o2)cc1`, the TGI (HCT-116 colon) is reported as > 100 µM, the TGI (K-562 leukemia) is reported as > 100 µM and the TGI (NCI-H23 lung) is reported as 87 µM. For the same molecule, the TGI (SF-295 CNS) was > 100 µM, the TGI (KM12 colon) was > 100 µM and the TGI (MOLT-4 leukemia) was 77.5 µM. For the same molecule, the TGI (NCI-H460 lung) was 40 µM, the TGI (SK-OV-3 ovarian) was > 100 µM and the TGI (MDA-MB-435) was > 100 µM.
`CN(C)N1C(=O)CC2(CCN(CCCC(=O)c3ccc(F)cc3)CC2)C1=O` was tested, and the TGI (HCT-116 colon) was > 100 µM, the TGI (K-562 leukemia) was > 100 µM and the TGI (NCI-H23 lung) was > 100 µM. For the same molecule, the TGI (SF-295 CNS) was > 100 µM, the TGI (KM12 colon) was > 100 µM and the TGI (MOLT-4 leukemia) was > 100 µM. The TGI (NCI-H460 lung) was > 100 µM, the TGI (SK-OV-3 ovarian) was > 100 µM and the TGI (MDA-MB-435) was > 100 µM.
With `O=C(NC1CCN(Cc2ccccc2)CC1)c1ccccc1I` the TGI (HCT-116 colon) was 31.1 µM, the TGI (K-562 leukemia) was > 100 µM and the TGI (NCI-H23 lung) was 72.1 µM. The TGI (SF-295 CNS) was 36.9 µM, the TGI (KM12 colon) was 34.6 µM and the TGI (MOLT-4 leukemia) was 55.1 µM. For the same molecule, the TGI (NCI-H460 lung) was 67.7 µM, the TGI (SK-OV-3 ovarian) was 43.6 µM and the TGI (MDA-MB-435) was 32.4 µM.
For `Nc1nc(Cl)nc2c1ncn2C1CCC(CO)O1` (stereo not given), the TGI (HCT-116 colon) was > 100 µM, the TGI (NCI-H23 lung) was > 100 µM and the TGI (SF-295 CNS) was > 100 µM. The TGI (KM12 colon) was > 100 µM, the TGI (MOLT-4 leukemia) was > 100 µM and the TGI (NCI-H460 lung) was > 100 µM. The TGI (SK-OV-3 ovarian) was > 100 µM and the TGI (MDA-MB-435) was > 100 µM.
For `Nc1nc(Cl)cc(NCC2(CO)CCC(OCc3ccccc3)C2)n1` (stereo not given), the TGI (HCT-116 colon) was > 100 µM, the TGI (K-562 leukemia) was > 100 µM and the TGI (NCI-H23 lung) was 43.8 µM. The TGI (SF-295 CNS) was > 100 µM, the TGI (KM12 colon) was 94.6 µM and the TGI (MOLT-4 leukemia) was 34.3 µM. The TGI (NCI-H460 lung) was > 100 µM, the TGI (SK-OV-3 ovarian) was 62.4 µM and the TGI (MDA-MB-435) was 39.9 µM.
Work on `CC[C@]12C=CCN3CCC4(c5cc(N=Nc6ccc([N+](=O)[O-])cc6)c(OC)cc5N(C)[C@H]4[C@@](O)(C(=O)OC)[C@@H]1OC(C)=O)[C@@H]32` (stereo not given in full) yielded a TGI (HCT-116 colon) of 24.6 µM, a TGI (K-562 leukemia) of 34.6 µM and a TGI (NCI-H23 lung) of 32.4 µM. The TGI (SF-295 CNS) was 30.8 µM, the TGI (KM12 colon) was 33.2 µM and the TGI (MOLT-4 leukemia) was 13.1 µM. For the same molecule, the TGI (NCI-H460 lung) was > 100 µM, the TGI (SK-OV-3 ovarian) was > 100 µM and the TGI (MDA-MB-435) was 31.6 µM.
With `CCC1CCN=C(Cn2cc(C)c(=O)[nH]c2=O)N1` (stereo not given) the TGI (HCT-116 colon) was > 100 µM, the TGI (HCC-2998 colon) was > 100 µM and the TGI (NCI-H23 lung) was > 100 µM. For the same molecule, the TGI (SF-295 CNS) was > 100 µM, the TGI (NCI-H460 lung) was > 100 µM and the TGI (SK-OV-3 ovarian) was > 100 µM.
For `CC1(CC(=O)OC(C#C[Si](C)(C)C)Cc2ccccc2)OCCO1` (stereo not given), the TGI (HCT-116 colon) was > 100 µM, the TGI (NCI-H23 lung) was > 100 µM and the TGI (SF-295 CNS) was > 100 µM. The TGI (KM12 colon) was > 100 µM, the TGI (MOLT-4 leukemia) was > 100 µM and the TGI (SK-OV-3 ovarian) was > 100 µM. The TGI (MDA-MB-435) was > 100 µM.
For `CCOC(=O)c1cc(Cl)ccc1OC(N)=O`, the TGI (HCT-116 colon) was > 100 µM, the TGI (HCC-2998 colon) was > 100 µM and the TGI (K-562 leukemia) was > 100 µM. For the same molecule, the TGI (NCI-H23 lung) was > 100 µM, the TGI (SF-295 CNS) was > 100 µM and the TGI (KM12 colon) was > 100 µM. For the same molecule, the TGI (MOLT-4 leukemia) was > 100 µM, the TGI (NCI-H460 lung) was > 100 µM and the TGI (SK-OV-3 ovarian) was > 100 µM.
In the case of `O=c1[nH][nH]c(=S)c(=O)[nH]1`, the TGI (HCT-116 colon) is reported as > 100 µM, the TGI (K-562 leukemia) is reported as > 100 µM and the TGI (NCI-H23 lung) is reported as > 100 µM. For the same molecule, the TGI (SF-295 CNS) was > 100 µM, the TGI (KM12 colon) was > 100 µM and the TGI (MOLT-4 leukemia) was > 100 µM. For the same molecule, the TGI (NCI-H460 lung) was > 100 µM, the TGI (SK-OV-3 ovarian) was > 100 µM and the TGI (MDA-MB-435) was > 100 µM.
With `COc1ccc(C2Oc3c(cccc3OC)C=C2[N+](=O)[O-])cc1` (stereo not given) the TGI (HCT-116 colon) was 2.55 µM, the TGI (K-562 leukemia) was 16.3 µM and the TGI (NCI-H23 lung) was 12.4 µM. The TGI (SF-295 CNS) was 16.3 µM, the TGI (KM12 colon) was 4.52 µM and the TGI (MOLT-4 leukemia) was 6.86 µM. It also gave a TGI (NCI-H460 lung) of 4.15 µM, a TGI (SK-OV-3 ovarian) of 15.3 µM and a TGI (MDA-MB-435) of 10.9 µM.

From PubChem BioAssay (NCI)
